For one data set, the system named is LOX. The data set is described as follows: Lysyl oxidase activity in rat skin after topical administration. The data set is classed as in vivo. The settings on record: for dorsal skin LOX activity compared to the placebos: rats, topical. How it is done: Dorsal and ventral skin from rats treated by topical application of compound 1 were semi-defrosted at ice-cold temperature and three 3 mm punches of the skin were taken using a tissue puncher. The core sample was microdissected to leave only the epidermal and dermal layers. All other layers were removed. […] The tissue punch was placed in a 1.5 mL Eppendorf tube and snap-frozen in liquid nitrogen. A mortar and pestle stored at −80° C. was then used to pulverize skin tissue. The pulverized sample was further washed in 1 mL of ice-cold washing buffer ((0.15 M NaCl, 50 mM sodium borate, pH 8.0, with PMSF: Sigma P7626, 0.25 mM, and Aprotinin: Sigma A6279, 1 μL per mL). The tissue buffer was centrifuged (20000 g for 10 minutes at 4° C.), and the supernatant was discarded. Fresh wash buffer (1 mL) was added and the Eppendorf tube was agitated for 5 minutes at 4° C. on a vortex shaker. Washing was repeated two more times. After the last wash, the supernatant was completely removed. The rat dorsal skin pellet was re-suspended in 6 M urea 50 mM sodium borate buffer, according to sample weight to achieve final urea concentration of 4.5 M. The extraction buffer contains protease inhibitors; aprotinin and PMSF as above. Each homogenate was well-mixed by continuous vortexing at 4° C. for a 3 hour extraction. After 3 hours, […] 50 mM sodium borate buffer was added to each sample according to sample size to achieve the final urea concentration of 2.4 M. Protease inhibitors—aprotinin and PMSF—are present. The mixture was again centrifuged at (20000 g at 4° C. for 10 minutes) and the supernatant was collected in a clean, cold eppendorf. To 50 μl of sample, pargyline (final concentration at 0.5 mM) and mofegiline (final concentration at 1 μM) were added. Enzyme mix (25 μL) was transferred to the test plate with or without […] (0.5 μl 30 mM) and incubated at 37° C. for 30 minutes. Reaction mix (25 μL) is added to each well, plate fluorescence is measured every 2.5′ with or without 100 μM BAPN for the low controls (Ex: 544 nm/Em: 590 nm/gain: 1260 at 37° C.).

Another data set concerns scars. The data set is described as follows: Excision injury model in pigs. It counts as in vivo. As to conditions: daily for 12 weeks. Here is the method:
Eight full thickness excisions (5×2 cm^2) were made on 5 female juvenile pigs (each weighing 18-20 kg) for a total of 40 injury sites. The entire epidermis and dermal layers of skin were removed by a plastic surgeon in one operation under anaesthesia leaving excisions approximately 5-8 mm in depth. Wounds were dressed and anti-anxiety jackets (Thundershirt; RSPCA) provided to cover wounds. Analgesia was given—buprenorphine injection and fentanyl patch (50 μg/hr) for 10 days, post-surgery—and animals were allowed to recover. The dressings were changed at regular intervals to protect the wounds and prevent infection. Daily treatment started 14 days post-surgery and continued for 12 weeks. […] The surgeons ranked scars in each set of 4 from best to worst (0-3) and the scores for each scar were added and analysed.

A short description of data set [1]: Ultraviolet (UV) absorbance. The data set is classed as physicochemical. The settings on record: from 290 nm to 680 nm, Shimadzu LCMS 2020. The text has this:
Minimising UV light absorption of drugs may avoid risk of phototoxicity and photoallergy. For induction of phototoxicity and/or photoallergy, a chemical must absorb light within the range of natural sunlight (290 to 700 nm). Therefore, compounds with no absorbance across the natural sunlight spectrum are advantageous.

The nature of data set [2]: Chemical stability in topical formulation. The data set is classed as physicochemical. The text has this:
The stability of a drug product formulation can have a significant impact on the length and cost of drug development, the nature of the studies required to support regulatory submissions, and, ultimately, safety and approvability. It is important to minimize the amount of impurities or degradation products that form over time due to interactions between the various ingredients in a formulation. This can be particularly important in compositions that are designed to increase skin permeability.

`NC/C=C(\F)C(F)(F)S(=O)(=O)c1ccccc1` [Compound 1, (Z)-3,4,4-trifluoro-4-(phenylsulfonyl)but-2-en-1-amine]: the “dorsal skin LOX activity compared to the placebos” value in the data set with LOX (cream containing 1% Compound 1, 400 mg/rat) is given as “significantly lower”; in the data set with LOX (cream containing 3% Compound 1, 200 mg/rat) it was “significantly lower”. In addition, the “LOX activity in the skin of rats” value with LOX (topical application of cream versus control (FIG. 3)) is “reduction”. Besides, in the data set on scars (pigs, 0, 0.5, 1.5 and 3% oil in water cream), the scar appearance result was “substantial, dose-dependent improvement”. Further, the “scar visible versus control scars” value in the data set on scars (pigs, 3% oil in water cream) was “significantly less scar visible”. The UV absorbance entry in data set [1] is “no absorbance”. In addition, the “% Area at 265 nm” value in data set [2] (6% in formulation 2, 2-8° C., 161 days) is 100.00 % Area; in data set [2] (6% in formulation 2, 40° C., 161 days), 99.66 % Area; in data set [2] (6% in formulation 2, reference sample), 100.00 % Area; in data set [2] (6% in formulation 2, rt, 161 days), 100.00 % Area; in data set [2] (8% in formulation 2, 2-8° C., 161 days) it was 99.91 % Area; in data set [2] (8% in formulation 2, 40° C., 161 days), 99.36 % Area. The “% Area at 265 nm” value is given as 100.00 % Area in data set [2] (8% in formulation 2, reference sample) and 99.74 % Area in data set [2] (8% in formulation 2, rt, 161 days). The compound peak percentage result in data set [2] (topical formulation 2, all the tested conditions) is reported as “above 99.5%”.
